According to patent US8847018B2, “Plants tolerant to HPPD inhibitor herbicides” (Bayer CropScience AG, priority 2009, dated 2014):
“Also recorded” adds a separate entry of the source.

Experiments:
[1] = molecular target: Rhodococcus HPPD SEQ ID No. 19 (FMP23e); experiment: HPLC assay of HPPD in vitro kinetic properties; assay type: biochemical, Rhodococcus sp. (strain RHA1), isolate ro02040; details: 2 mM HPP; SEQ ID No. 19
[2] = molecular target: (Rhodococcus jostii, UniProt Q0SF39); experiment: HPLC assay of HPPD in vitro kinetic properties; assay type: biochemical, Rhodococcus sp. (strain RHA1), isolate ro02040
[3] = tested on: Rhodococcus HPPD SEQ ID No. 19 (FMP23e); experiment: biochemical; assay type: biochemical, Rhodococcus sp. (strain RHA1), isolate ro02040; details: SEQ ID No. 19
[4] = molecular target: T1, Arabidopsis thaliana HPPD SEQ ID No. 10 (Arabidopsis thaliana, UniProt P93836); experiment: HPLC assay of HPPD in vitro kinetic properties
T1 sequence (P93836 with tags, fused parts or gaps): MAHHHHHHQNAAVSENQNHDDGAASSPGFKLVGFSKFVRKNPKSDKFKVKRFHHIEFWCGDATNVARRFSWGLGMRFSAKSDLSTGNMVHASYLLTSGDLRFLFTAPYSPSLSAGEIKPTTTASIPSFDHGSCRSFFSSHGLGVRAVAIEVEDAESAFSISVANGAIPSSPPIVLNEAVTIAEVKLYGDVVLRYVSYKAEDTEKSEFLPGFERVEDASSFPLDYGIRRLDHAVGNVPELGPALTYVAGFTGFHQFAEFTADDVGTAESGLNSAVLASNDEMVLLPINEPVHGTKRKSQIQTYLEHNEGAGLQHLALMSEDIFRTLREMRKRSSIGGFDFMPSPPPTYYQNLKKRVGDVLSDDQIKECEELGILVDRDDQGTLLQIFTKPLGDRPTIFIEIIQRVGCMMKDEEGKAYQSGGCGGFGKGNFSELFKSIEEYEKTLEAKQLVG
Description: All assays were started by the addition of HPPD enzyme to the assay mixture and stopped at a series of times between 0 and 240 s by addition of 200 μl of the reaction mixture to reaction assay tubes containing 20 μl 10% perchloric acid. Precipitated protein was pelleted by a 5 minute centrifugation at 10,000 g. […] For Km and Vmax value determinations the initial rates of the HPPD reaction at different substrate concentrations were determined from plots of HGA formed versus time and fitted to the Michaelis-Menten equation for unireactant enzymes using the ID Business Solutions Ltd. (idbs.com) XLfit software suite.

[5] = tested on: tobacco calli containing HPPD SEQ ID No. 7 (Rhodococcus); experiment: Rooting of calli on media with tembotrione; assay type: cell-based, Nicotiana tabacum; details: calli containing SEQ ID No. 7; 6 to 12 weeks
Description: (§1) The leaf disks were co-cultivated for 2 days with Agrobacterium tumefaciens cells containing either the binary vector FMP22ebv, FMP23ebv or AtHPPDbv. Then the leaf disks were transferred to a media allowing the regeneration of shoots for 6 weeks on MS (Musharige and Skoog, (1962), Physiol Plant 15(3): 473-497) media supplemented with BAP ([…]; Benzylaminopurine), carbenicillin ([…]), cefotaxine (250 mg/mL), kanamycin (75 mg/mL) and tembotrione (10^−6 M)
(§2) Regenerated calli were transferred on media to induce the development of roots for 6 to 12 weeks: MS (½), supplemented with carbenicillin (250 mg/mL), cefotaxine (250 mg/mL), kanamycin (75 mg/mL), and tembotrione (10^−6 M).
(§3) Regenerated shoot calli from a cell transformed with a nucleic acid sequence encoding an HPPD comprising SEQ ID No. 11 (Arabidopsis thaliana) SEQ ID No. 21 or SEQ ID No. 7 (Rhodococcus) were transferred to a media inducing root growth which media was further supplemented with the HPPD inhibitor tembotrione for 6 to 12 weeks.

[6] = tested on: tobacco calli containing HPPD SEQ ID No. 21 (Rhodococcus); experiment: Rooting of calli on media with tembotrione; assay type: cell-based, Nicotiana tabacum; details: calli containing SEQ ID No. 21; 6 to 12 weeks
Description: as §1, §2, §3

[7] = tested on: tobacco calli containing HPPD SEQ ID No. 11 (Arabidopsis thaliana); experiment: Rooting of calli on media with tembotrione; assay type: cell-based, Nicotiana tabacum; details: calli containing SEQ ID No. 11; 6 to 12 weeks
Description: as §1, §2, §3

[8] = tested on: soybean plants expressing the FMP23 HPPD protein; experiment: Greenhouse treatment of soybean events with tembotrione; assay type: in vivo; details: six FMP23 events; 100 g AI/ha, ten days after application
Description: (§4) Plants containing the transgene were then sprayed with HPPD inhibitor herbicides, as for example with tembotrione at a rate of 100 g Al/ha. Ten days after the application the symptoms due to the application of the herbicide were evaluated and compared to the symptoms observed on a wild type plants under the same conditions.
(§5) Concerning FMP22, one event expressing the FMP22 HPPD protein have been generated from the green shoots of above and were transferred to the greenhouse. Four weeks after acclimation, i.e. plants at a developmental stage of 3-4 internodes were treated with 100 g Al/ha tembotrione prepared from a WP 20 formulation supplemented with ammonium sulfate and methyl ester raps oil. Ten days after application, the symptoms caused by the application of the HPPD inhibitor herbicide were evaluated and compared to the symptoms observed on treated non-transgenic wild-type soybean plants. […] Concerning FMP23, six events expressing the FMP23 HPPD protein have been generated from the green shoots of above and were transferred to the greenhouse. […] Ten days after application, the symptoms caused by the application of the HPPD inhibitor herbicide were evaluated and compared to the symptoms observed on treated non-transgenic wild-type soybean plants.

[9] = tested on: soybean plants expressing the FMP22 HPPD protein; experiment: as above; assay type: in vivo; details: one FMP22 event; 100 g AI/ha, ten days after application
Description: as §4, §5

`CS(=O)(=O)c1ccc(C(=O)C2C(=O)CCCC2=O)c(Cl)c1COCC(F)(F)F` [Tembotrione, 2-[2-chloro-4-(methylsulfonyl)-3-[(2,2,2,-tri-fluoroethoxy)methyl]benzoyl]-1,3-cyclo-hexanedione] showed a Ki [1] of 2 µM, a kon ([2]; read-out: k1 (Kon, association rate constant)) of 3200 M⁻¹ s⁻¹ and a koff ([2]; read-out: k−1 (Koff, enzyme-inhibitor complex dissociation)) of 0.0063 s⁻¹. For the same compound, the pI50 ([3]; 2 mM HPP, 3 minutes incubation) was 5.1, the “percentage of inhibition compared to activity in absence of the inhibitor” value ([3]; 5.0 × 10^−6 M inhibitor) was 70% and the Ki [4] was 0.015 µM. For the same compound, the “% Elongation & rooting on 10^−6 M tembotrione” value [5] was 65%, the “root growth on media with tembotrione” value [5] was “clearly developed numerous and healthy roots” and the “% Elongation & rooting on 10^−6 M tembotrione” value [6] was 63%. For the same compound, the “root growth on media with tembotrione” value [6] was “clearly developed numerous and healthy roots”, the “root growth on media with tembotrione” value [7] was “On none of the events containing the HPPD defined by SEQ ID No. 11 (Arabidopsis thaliana) or none transformed calli, root growth was observed” and the “symptoms caused by the herbicide” value [8] was “One of the six events didn't show any bleaching phenotype; also recorded: One event showed transitory light bleaching symptoms but recovered 14 days after tembotrione application; also recorded: remaining four events exhibited the bleaching like non-transgenic wild-type soybean plant”. For the same compound, the “symptoms caused by the herbicide” value [9] was “transitory light bleaching symptoms but recovered 14 days after tembotrione application”.
